Test system: CA-MRSA clinical isolates and a wild type CA-MRSA strain
Experiment: AST-Chip antibiotic susceptibility test of CA-MRSA clinical isolates (FUN-1 fluorescence)
Assay type: cell-based, Staphylococcus aureus
Settings: isolates A32, K2 and B2 compared with isolates I27, D1, M2 and WT, 8 μg/ml, incubated 16 h
Method: The key steps in chip fabrication are described in below (these methods are also described in Srinivasan et al., which is incorporated by reference herein). The fabrication included three steps: (i) modification of the surface of glass slides with poly(styrene-co-maleic anhydride) (PSMA); (ii) printing spots of a 30 nl mixture of poly-l-lysine and barium chloride to create a “tie-layer” using a robotic microarrayer (Microsys, Digilab); and (iii) printing a 30 nl mixture of 0.5% alginate solution, optimized-growth medium and antimicrobial agents at various concentrations on top of the tie-layer. […]
The AST-Chip was benchmarked by evaluating the antimicrobial-susceptibility of a wild type strain of Staphylococcus aureus (UAMS-1) and CA-MRSA (USA 300) against methicillin. […] After incubation, the cell density at different spots was quantified using FUN-1, a vital fluorescent dye with excitation and emission wavelength that is compatible with a standard microarray scanner and facilitating faster read out (FIG. 6A). The fluorescence intensity of control (no drug) and sodium hypochlorite-treated dead biofilms were set at 100% and 0%, respectively. The inhibitory effects of the antimicrobial agents were determined by the reduction in fluorescence intensity in comparison to the controls (FIG. 6B). […]

## CN[C@H](CC(C)C)C(=O)N[C@H]1C(=O)N[C@@H](CC(N)=O)C(=O)N[C@H]2C(=O)N[C@H]3C(=O)N[C@H](C(=O)N[C@H](C(=O)O)c4cc(O)cc(O)c4-c4cc3ccc4O)[C@H](O)c3ccc(c(Cl)c3)Oc3cc2cc(c3O[C@@H]2O[C@H](CO)[C@@H](O)[C@H](O)[C@H]2O[C@H]2C[C@](C)(N)[C@H](O)[C@H](C)O2)Oc2ccc(cc2Cl)[C@H]1O [vancomycin]
  relative susceptibility of isolates to the drug: less susceptible
